Measured values published in patent publication US9738932B2, “Biomarkers for cardiovascular side-effects induced by cox-2 inhibitory compounds” (FIRALIS SAS, priority 2005, dated 2017).

System: mRNA expression in cardiovascular tissues
Experiment: Affymetrix GeneChip mRNA expression profiling of monkey tissues (iliac vein, pulmonary vein, aorta, carotid artery, heart) after two-week oral-gavage treatment
Details: iliac vein; group avg, Vioxx without A60055

Cc1ccc(Nc2c(F)cccc2Cl)c(CC(=O)O)c1 [COX189, Lumiracoxib]
4.2 fold: IFI27 (202411_at) avg fold change vs control
1.9 fold: STAT1 (AFFX-HUMISGF3A/M97935_MB_at) avg fold change vs control
1.2 fold: HFE (211866_x_at) avg fold change vs control | HLA-B (209140_x_at) avg fold change vs control | HLA-C (214459_x_at) avg fold change vs control | HLA-DMA (217478_s_at) avg fold change vs control | HLA-DMB (203932_at) avg fold change vs control | HLA-DRA (208894_at) avg fold change vs control | HLA-E (200905_x_at) avg fold change vs control | HLA-F (204806_x_at) avg fold change vs control | HLA-F (221875_x_at) avg fold change vs control | ICSBP1 (204057_at) avg fold change vs control | IFITM2 (201315_x_at) avg fold change vs control | INDO (210029_at) avg fold change vs control | INPP5D (203332_s_at) avg fold change vs control | LCP2 (205270_s_at) avg fold change vs control | PTPN22 (206060_s_at) avg fold change vs control | STAT1 (AFFX-HUMISGF3A/M97935_MA_at) avg fold change vs control | TNFAIP3 (202643_s_at) avg fold change vs control | TNFSF10 (202687_s_at) avg fold change vs control | TNFSF10 (202688_at) avg fold change vs control
1.0 fold: HHL (203020_at) avg fold change vs control | HLA-DQB1 (209823_x_at) avg fold change vs control | ICAM1 (215485_s_at) avg fold change vs control | IFITM3 (212203_x_at) avg fold change vs control | ITGB2 (202803_s_at) avg fold change vs control | KLKB1 (206541_at) avg fold change vs control | LILRB1 (211100_x_at) avg fold change vs control | LILRB3 (208594_x_at) avg fold change vs control | LY96 (206584_at) avg fold change vs control | PLSCR1 (202446_s_at) avg fold change vs control | PRC1 (218009_s_at) avg fold change vs control | SOCS3 (206360_s_at) avg fold change vs control | XLKD1 (219059_s_at) avg fold change vs control
1.7 fold: XCL1 (206366_x_at) avg fold change vs control
1.3 fold: HFE (211863_x_at) avg fold change vs control | HLA-A (211528_x_at) avg fold change vs control | HLA-A (211529_x_at) avg fold change vs control | HLA-A (215313_x_at) avg fold change vs control | HLA-B (208729_x_at) avg fold change vs control | HLA-B (211911_x_at) avg fold change vs control | HLA-DQB1 (211656_x_at) avg fold change vs control | HLA-DRB3 (209312_x_at) avg fold change vs control | HLA-DRB6 (217362_x_at) avg fold change vs control | IL2RG (204116_at) avg fold change vs control | IRF1 (202531_at) avg fold change vs control | TNFAIP3 (202644_s_at) avg fold change vs control | TNFSF6 (210865_at) avg fold change vs control | TRGC2 (211144_x_at) avg fold change vs control | XCL1 (214567_s_at) avg fold change vs control
0.7 fold: LILRB1 (207857_at) avg fold change vs control
1.4 fold: HLA-C (216526_x_at) avg fold change vs control | HLA-DQB2 (212998_x_at) avg fold change vs control | HLA-E (217456_x_at) avg fold change vs control | IFIT2 (217502_at) avg fold change vs control | LCK (204890_s_at) avg fold change vs control | PLA2G4C (209785_s_at) avg fold change vs control | STAT1 (209969_s_at) avg fold change vs control
0.9 fold: HFE (211329_x_at) avg fold change vs control | ICAM1 (202638_s_at) avg fold change vs control | IFIT4 (204747_at) avg fold change vs control | IGF1 (209541_at) avg fold change vs control | LY86 (205859_at) avg fold change vs control | MAF (209348_s_at) avg fold change vs control | PLCL2 (216217_at) avg fold change vs control | PRG1 (201858_s_at) avg fold change vs control | PRG1 (201859_at) avg fold change vs control | TCTEL1 (201999_s_at) avg fold change vs control | VCAM1 (203868_s_at) avg fold change vs control
1.6 fold: HLA-A (211530_x_at) avg fold change vs control | HLA-DQA1 (212671_s_at) avg fold change vs control | IL1A (208200_at) avg fold change vs control | IRF7 (208436_s_at) avg fold change vs control | LRMP (204674_at) avg fold change vs control | STAT1 (AFFX-HUMISGF3A/M97935_5_at) avg fold change vs control
0.6 fold: IGFBP4 (201508_at) avg fold change vs control
1.8 fold: HLA-DQB1 (211654_x_at) avg fold change vs control | cig5 (213797_at) avg fold change vs control
0.8 fold: LYN (210754_s_at) avg fold change vs control | PCOLCE (202465_at) avg fold change vs control | TLR1 (210176_at) avg fold change vs control | TLR2 (204924_at) avg fold change vs control
2.0 fold: IFI44 (214453_s_at) avg fold change vs control
1.5 fold: HLA-DRB1 (215193_x_at) avg fold change vs control | ISGF3G (203882_at) avg fold change vs control
1.1 fold: HFE (211332_x_at) avg fold change vs control | HLA-C (208812_x_at) avg fold change vs control | HLA-DRA (210982_s_at) avg fold change vs control | IFI30 (201422_at) avg fold change vs control | IFIT1 (203153_at) avg fold change vs control | IL27RA (205926_at) avg fold change vs control | JAK1 (214377_s_at) avg fold change vs control | LAIR1 (208071_s_at) avg fold change vs control | LILRB3 (210225_x_at) avg fold change vs control | PTPRC (207238_s_at) avg fold change vs control | TAPBP (208829_at) avg fold change vs control | TRGC2 (216920_s_at) avg fold change vs control
